The conditions of data set [1]: treatment of hypercholesterolemia; Am J. Med. 2000:108:538-547; cited from earlier work.
Data set [2] deals with cerebral ischemia caused by middle-cerebral artery occlusion (MCAO). The data set is described as follows: Infarct volume after middle-cerebral artery occlusion (MCAO) in mice. The class given is in vivo. To be noted: mouse, subcutaneous 2 or 20 mg/kg for 14 days before MCAO. From the text:
(§1) The studies were generally carried out according to the methods set forth in M. Endres et al., Stroke protection by 3-hydroxy-3-methylglutaryl (HMG)-CoA reductase inhibitors mediated by endothelial nitric oxide synthase, Proc. Natl. Acad. Sci. USA, 95:8880-8885 (1998). In many cases dementia is known to result from the cumulative neurodegenerative effects of strokes. These can be major strokes or sub-clinical strokes, and result in a heterogeneous group of dementias commonly called vascular dementia (VAD). In this study rosuvastatin protected the brain in mice from cerebral ischemia A mechanism by which rosuvastatin may prevent dementia is by protecting the brain from cerebral ischemia.

The test system of a further data set is eNOS. In words: eNOS expression and activity in mice after subcutaneous rosuvastatin. To be noted: mouse, subcutaneous 2 or 20 mg/kg for 14 days. The class given is in vivo.
Excerpt: as §1

In a further data set the test system is cholesterol. To be noted: cited from earlier work.

Where a name gives a salt, the structure may show the parent alone.

For `CC[C@H](C)C(=O)O[C@H]1C[C@@H](C)C=C2C=C[C@H](C)[C@H](CC[C@@H]3C[C@@H](O)CC(=O)O3)[C@H]21` [Lovastatin], in data set [1], the “performance on neuropsychological tests of attention and psychomotor speed” value was “small performance decrements”.

`CC(C)c1nc(N(C)S(C)(=O)=O)nc(-c2ccc(F)cc2)c1/C=C/[C@@H](O)C[C@@H](O)CC(=O)O` [rosuvastatin, bis[(E)-7-[4-(4-fluorophenyl-6-isopropyl-2-[methyl(methylsulfonyl)amino]pyrimidin-5-yl]-(3R,5S)3,5-dihydroxyhept-6-enoic acid]calcium salt]: the “volume of infarct resulting from subsequent cerebral ischemia (MCAO)” value in data set [2] is “reduced”. Also, in the data set with eNOS, the “activity of eNOS” value is reported as “increased” and the “expression of eNOS” value was “increased”. The “reducing cholesterol in patients versus other HMG-CoA reductase inhibitors” value in the data set on cholesterol is reported as “superior”.

These data come from patent publication US20060229321A1, “Rosuvastatin in pre demented states” (priority 2001, published 2006).
